According to patent US9062046B2, “Substituted imidazoquinoline derivatives as kinase inhibitors” (Piramal Enterprises Limited, priority 2011, dated 2015):

Tests used:
[1] = tested on: PC3 (prostate cell line); assay: Cytotoxicity assay (propidium iodide assay), PC3; format: cell-based; details: Homo sapiens, PC-3; PC3 cells, 48 h treatment
In short: (§1)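 A2780 and PC3 cells, 3000/well, were treated with compound for 48 h after 18-24 h attachment. After washing, propidium iodide 7 μg/ml was added, followed by freeze-thaw at −70 °C and a fluorescence read. Viability was taken relative to untreated wells, with IC50 derived from the curves.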

[2] = molecular target: T1, p110α (Homo sapiens, UniProt P42336); assay: p110α radioactive lipid kinase assay (PI3Kα); format: biochemical; details: 25 μM ATP, 2 h at RT, read-out: IC50 in μM (PI3 kinase activity)
T1 construct: purchased Upstate Millipore
T1 sequence (P42336 whole entry, species assumed): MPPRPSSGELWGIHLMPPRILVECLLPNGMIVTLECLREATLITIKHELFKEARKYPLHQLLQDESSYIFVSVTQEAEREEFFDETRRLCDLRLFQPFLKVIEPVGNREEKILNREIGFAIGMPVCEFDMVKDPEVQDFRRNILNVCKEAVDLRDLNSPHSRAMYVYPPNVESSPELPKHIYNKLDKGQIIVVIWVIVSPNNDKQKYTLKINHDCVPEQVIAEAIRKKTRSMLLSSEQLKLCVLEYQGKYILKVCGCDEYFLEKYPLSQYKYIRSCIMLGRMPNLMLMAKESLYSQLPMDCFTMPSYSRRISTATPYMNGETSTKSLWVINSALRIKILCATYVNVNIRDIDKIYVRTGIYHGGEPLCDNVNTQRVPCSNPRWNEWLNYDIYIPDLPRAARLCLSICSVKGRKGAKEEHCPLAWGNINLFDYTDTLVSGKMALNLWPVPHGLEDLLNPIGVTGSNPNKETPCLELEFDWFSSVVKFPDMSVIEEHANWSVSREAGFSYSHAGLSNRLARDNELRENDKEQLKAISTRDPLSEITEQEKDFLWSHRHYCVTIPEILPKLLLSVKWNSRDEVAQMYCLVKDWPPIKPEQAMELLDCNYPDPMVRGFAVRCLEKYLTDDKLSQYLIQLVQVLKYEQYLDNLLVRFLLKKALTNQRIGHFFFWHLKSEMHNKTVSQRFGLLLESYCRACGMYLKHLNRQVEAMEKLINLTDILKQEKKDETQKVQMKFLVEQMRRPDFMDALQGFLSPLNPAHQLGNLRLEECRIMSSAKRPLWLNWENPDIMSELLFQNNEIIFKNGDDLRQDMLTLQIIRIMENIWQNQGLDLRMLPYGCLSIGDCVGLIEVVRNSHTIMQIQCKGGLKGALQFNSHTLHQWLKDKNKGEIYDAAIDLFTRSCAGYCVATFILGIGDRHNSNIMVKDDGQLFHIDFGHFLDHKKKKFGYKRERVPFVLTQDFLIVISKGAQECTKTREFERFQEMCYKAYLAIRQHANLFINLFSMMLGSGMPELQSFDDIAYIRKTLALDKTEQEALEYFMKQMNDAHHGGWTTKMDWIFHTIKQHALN
T1 sequence (P27986 whole entry partner, species assumed): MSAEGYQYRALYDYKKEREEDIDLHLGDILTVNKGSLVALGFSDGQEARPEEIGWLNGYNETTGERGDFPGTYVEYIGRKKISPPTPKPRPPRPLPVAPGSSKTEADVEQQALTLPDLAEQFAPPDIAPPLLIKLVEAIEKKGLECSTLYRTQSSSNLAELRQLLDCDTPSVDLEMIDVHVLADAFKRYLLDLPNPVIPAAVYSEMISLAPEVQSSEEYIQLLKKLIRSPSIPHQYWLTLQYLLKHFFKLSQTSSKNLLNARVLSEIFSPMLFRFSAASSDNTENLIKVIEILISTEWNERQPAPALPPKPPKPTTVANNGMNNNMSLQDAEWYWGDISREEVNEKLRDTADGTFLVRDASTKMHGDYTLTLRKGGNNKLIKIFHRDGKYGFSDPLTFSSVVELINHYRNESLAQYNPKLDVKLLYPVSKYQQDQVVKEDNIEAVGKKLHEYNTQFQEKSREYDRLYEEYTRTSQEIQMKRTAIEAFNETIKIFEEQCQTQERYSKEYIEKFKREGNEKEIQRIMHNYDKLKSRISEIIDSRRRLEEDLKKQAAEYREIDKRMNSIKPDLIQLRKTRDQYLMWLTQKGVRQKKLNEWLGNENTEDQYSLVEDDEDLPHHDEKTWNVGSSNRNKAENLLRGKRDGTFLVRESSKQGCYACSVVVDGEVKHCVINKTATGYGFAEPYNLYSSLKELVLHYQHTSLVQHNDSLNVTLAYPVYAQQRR
Protocol: Protocol for Kinase Assay (PI3Kα)
p110α Radioactive Lipid Kinase Assay
The assay was designed as in the reference, Journal of Biomolecular Screening, 2002, Vol. 7, No. 5, 441-450, the disclosure of which is incorporated by reference for the teaching of the assay.
The p110α biochemical assay was performed using a radioactive assay measuring the incorporation of ^32P into the p110α substrate, phosphatidylinsoitol (PI). For the generation of IC50 curves, the reaction was performed in a 96-well MaxiSorp plates. Plates were pre-coated with 4 μg/well of a 1:1 ratio of phosphatidylinositol (PI: Avanti #840042C) and phosphatidylserine (PS: Avanti #840032C) diluted in CHCl3. Equal amount of p110α (Upstate Millipore) protein was added to each well, containing reaction buffer (50 mM MOPSO pH7.0, 100 mM NaCl, 4 mM MgCl2, 0.1% (w/v) BSA) whereas, for negative control, only reaction buffer was added. Test compounds (referred to by example nos. in the following table 1) dissolved in DMSO were treated at nine-point dose responses. Reactions were initiated by the addition of 25 μM ATP solution containing 50 μCi/ml [γ-^32P]-ATP and incubated at RT for 2 h with gentle shaking. Reactions were finally terminated by the addition of 50 mM EDTA stock solution. Plates were washed 3 times with TBS buffer. The plates were air dried, Microscint 0 (Perkin Elmer) was added to each well and the plates were sealed. The radioactivity incorporated into the immobilized PI substrate was determined with Top Count (Perkin Elmer). Inhibition was calculated using the following equation: % inhibition=(Dcpm−Tcpm)/(Dcpm)×100 • Tcpm=^32P-cpm in presence of test compounds • Dcpm=^32P-cpm in DMSO control (enzyme control deducted) Results: IC50 values of test compounds for PI3 kinase activity is indicated in Table 1.

[3] = tested on: A2780 (ovarian cell line); assay: Cytotoxicity assay (propidium iodide assay), A2780; format: cell-based; details: Homo sapiens; A2780 cells, 48 h treatment
In short: as §1

IC50 [2] | Structure (SMILES) | IC50 [1] | IC50 [3]
0.01 to 1 µM | Cn1c(=NC#N)n(-c2ccc(C(C)(C)C#N)nc2)c2c3cc(-c4cnc(N)nc4)ccc3ncc21 [Example 75, N-(8-(2-aminopyrimidin-5-yl)-1-(6-(2-cyanopropan-2-yl)pyridin-3-yl)-3-methyl-1H-imidazo[4,5-c]quinolin-2(3H)-ylidene)cyanamide] | ≤ 0.5 µM | ≤ 0.5 µM
0.01 to 1 µM | Cn1c(=NC#N)n(-c2ccc(C(C)(C)C#N)nc2)c2c3cc(-c4ccc(N5CCCCC5)nc4)ccc3ncc21 [Example 76, N-(1-(6-(2-cyanopropan-2-yl)pyridin-3-yl)-3-methyl-8-(6-(piperidin-1-yl)pyridin-3-yl)-1H-imidazo[4,5-c]quinolin-2(3H)-ylidene)cyanamide] | 0.5 to 2 µM | ≤ 0.5 µM
0.01 to 1 µM | Cc1cc(-c2ccc3ncc4c(c3c2)n(-c2ccc(C(C)(C)C#N)nc2)c(=NC#N)n4C)cnc1F [Example 78, N-(1-(6-(2-cyanopropan-2-yl)pyridin-3-yl)-8-(6-fluoro-5-methylpyridin-3-yl)-3-methyl-1H-imidazo[4,5-c]quinolin-2(3H)-ylidene)cyanamide] | ≤ 0.5 µM | ≤ 0.5 µM

More lines, now with the values behind:

Structure (SMILES) | IC50 [2] | IC50 [1] | IC50 [3]
Cn1c(=NC#N)n(-c2ccc(C(C)(C)C#N)nc2)c2c3cc(-c4ccc5cn[nH]c5c4)ccc3ncc21 [Example 77, N-(1-(6-(2-cyanopropan-2-yl)pyridin-3-yl)-8-(1H-indazol-6-yl)-3-methyl-1H-imidazo[4,5-c]quinolin-2(3H)-ylidene)cyanamide] | 0.01 to 1 µM | ≤ 0.5 µM | ≤ 0.5 µM
Cn1c(=NC#N)n(-c2ccc(C(C)(C)C#N)nc2)c2c3cc(-c4ccc5cc[nH]c5c4)ccc3ncc21 [Example 79, N-(1-(6-(2-cyanopropan-2-yl)pyridin-3-yl)-8-(1H-indol-6-yl)-3-methyl-1H-imidazo[4,5-c]quinolin-2(3H)-ylidene)cyanamide] | ≤ 0.01 µM | ≤ 0.5 µM | ≤ 0.5 µM
COc1ncc(-c2ccc3ncc4c(c3c2)n(-c2ccc(C(C)(C)C#N)nc2)c(=NC#N)n4C)cc1N [Example 95, N-(8-(5-amino-6-methoxypyridin-3-yl)-1-(6-(2-cyanopropan-2-yl)pyridin-3-yl)-3-methyl-1H-imidazo[4,5-c]quinolin-2(3H)-ylidene)cyanamide] | 0.01 to 1 µM | ≤ 0.5 µM | ≤ 0.5 µM
COc1ncc(-c2ccc3ncc4c(c3c2)n(-c2ccc(C(C)(C)C#N)nc2)c(=NC#N)n4C)cc1NS(=O)(=O)c1ccccc1 [Example 125, N-(5-(2-(cyanoimino)-1-(6-(2-cyanopropan-2-yl)pyridin-3-yl)-3-methyl-2,3-dihydro-1H-imidazo[4,5-c]quinolin-8-yl)-2-methoxypyridin-3-yl)benzenesulfonamide] | ≤ 0.01 µM | ≤ 0.5 µM | ≤ 0.5 µM
